Patent US20080226596A1, “Therapeutic compositions and methods useful in treating hepatitis” (priority 2006, published 2008)

Legend:
WM9 cells = test: WM9 melanoma cell growth, MTT assay; assay type: cell-based, human
Protocol: For cell proliferation assays, cells were grown in 10% FCS culture medium containing various amounts of IFNs and/or sodium stibogluconate in 96 well plates and cultured at 37° C. for 3 or 6 days as indicated. The numbers of viable cells in proliferation assays were determined by MTT assays as described in Phatak et al., J. Immunol. 167, 3391 (2001).
Dose response curves were generated for each drug alone, and also the combinations. Median effect plots were generated for IFNs alone, sodium stibogluconate alone, and the combination. The combination index (CI) was determined and plotted vs. fraction affected (FA). Data were analyzed in both modes, mutually exclusive and mutually nonexclusive. The interaction between two mutually nonexclusive drugs is described by the Equation CI=D1/Dx1+D2/Dx2+D1D2/Dx1Dx2, where Dx1 and Dx2 are the doses of drug 1 and drug 2 that are required to inhibit growth x %. […] When CI<1, drugs are synergistic, when CI=1, drugs are additive, and when CI>1, drugs are antagonistic.
Renca (Murphy, G. P., and W. J. Hrushesky. 1973. A murine renal cell carcinoma. J Natl Cancer Inst 50:1013), Jurkat (Gillis, S., and J. Watson. 1980. Biochemical and biological characterization of lymphocyte regulatory molecules. V. Identification of an interleukin 2-producing human leukemia T cell line. J Exp Med 152:1709) and WM9 (Forsberg, K., I. Valyi-Nagy, C. H. Heldin, M. Herlyn, and B. Westermark. 1993. Platelet-derived growth factor (PDGF) in oncogenesis: development of a vascular connective tissue stroma in xenotransplanted human melanoma producing PDGF-BB. Proc Natl Acad Sci USA 90:393) cell lines were obtained from a colleague at the Cleveland Clinic Foundation (CCF) and cultured in RPMI 1640 medium supplemented with 10% fetal calf serum (FCS). […] SSG has been described previously (Yi, T., M. K. Pathak, D. J. Lindner, M. E. Ketterer, C. Farver, and E. C. Borden. 2002. Anticancer activity of sodium stibogluconate in synergy with IFNs. J Immunol 169:5978).
NIH3T3 (Yi, et al., Blood 85, 87 (1995)), WM9 (Forsberg, et al., Proc. Nat. Acad Sci. USA 90, 393 (1993)), DU145 (Mickey, et al., Cancer Res. 37, 4049 (1977)), LoVo (Drewinko, et al., Cancer Res. 36, 467 (1976)), HEY (Buick, et al., Cancer Res. 45, 3668 (1985)), U251 (Yoshida, et al., Cancer 50, 410 (1982)), A549 (Giard, et al., J. Natl. Cancer Inst. 51, 1417 (1973)) and SK-N-SH (Helson, et al., Cancer Res. 35, 2594 (1975)) cell lines have been described and were cultured in RPMI 1640 supplemented with 10% fetal calf serum (FCS). For measurement of sodium stibogluconate effects on cell growth in vitro, cells were cultured in the absence (−) or presence (+) of various amounts of sodium stibogluconate for 6 days with viable cells quantified by MTT assays (Mosmann, J. Immunol. Methods 65, 55 (1983)). Percentages of growth inhibition by sodium stibogluconate were calculated (.+−.x

MKP1 = biological target: T1, MKP1 (Homo sapiens, UniProt P28562); test: In vitro PTPase assay, GST/MKP1; assay type: biochemical
T1 construct: GST (N); made in house; host or cells: DH5a bacteria
T1 sequence (P28562 1-367): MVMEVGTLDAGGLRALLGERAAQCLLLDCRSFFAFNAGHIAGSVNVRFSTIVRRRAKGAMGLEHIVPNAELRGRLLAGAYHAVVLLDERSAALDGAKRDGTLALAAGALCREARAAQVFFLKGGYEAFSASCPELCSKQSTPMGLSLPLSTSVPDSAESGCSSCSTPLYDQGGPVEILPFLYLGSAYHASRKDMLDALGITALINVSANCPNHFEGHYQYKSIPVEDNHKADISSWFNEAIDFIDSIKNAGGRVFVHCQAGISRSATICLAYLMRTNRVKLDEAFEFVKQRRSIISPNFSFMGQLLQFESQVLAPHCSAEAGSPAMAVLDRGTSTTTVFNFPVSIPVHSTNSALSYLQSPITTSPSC
Protocol: In vitro PTPase activities were measured using the commercial protein tyrosine phosphatase assay kit (Upstate Biotechnology, Inc. (“UBI”)) following established procedure known to one of skill in the art. This assay measures the in vitro dephosphorylation of a synthetic phosphotyrosine peptide of the sequence Arg-Arg-Leu-Ile-Glu-Asp-Ala-Gle-Tyr-Ala-Ala-Arg-Gly, wherein the tyrosine is phosphorylated (SEQ ID NO: 3). Briefly, 0.01 µg of GST/PTPase fusion proteins was incubated in 50 μL of Tris buffer (10 mM Tris, pH 7.4) containing different concentrations of inhibitors or chemicals (0-1,000 μg/ml) at 22° C. for 10 minutes, followed by addition of 0.2 mM of the phosphotyrosine peptide and incubation at 22° C. for 18 hours. 100 μL of Malachite Green solution was added and incubated for 5 minutes, and the absorbance at 660 nm was measured after 5 minutes.
In vitro PTPase assays were used to determine the effects of levamisole (Sigma), pentamidine (American Pharmaceutical Partners, Inc.), and ketoconazole (Sigma) on recombinant PTPases, following established procedures (Pathak et al., J. Imumol. 167, 3391 (2001); Pathak et al., Leukemia 16, 2285 (2002), Yi et al., J. Immunol. 169, 5978 (2002)) using a synthetic phosphotyrosine peptide or DiFMUP as the substrate as detailed above in section I.A.2.

SMILES	effect on IFN-alpha activity against WM9 (WM9 cells; ketoconazole 40 μg/ml)	activity against WM9 cells (WM9 cells; ketoconazole 0.625-20 μg/ml, single agent or with IFN-alpha)	inhibition of MKP1 (MKP1)	IFN-alpha-induced growth inhibition of WM9 with pentamidine (WM9 cells; most obviously at 0.625-1.25 μg/ml)	WM9 cell growth (WM9 cells; SSG, 6 days, comparable conditions to Renca)	killing of WM9 cells (WM9 cells; single agent, 50 and 100 μg/ml, day 6)	inhibitory activity against MKP1 (MKP1)
CC(=O)N1CCN(c2ccc(OCC3COC(Cn4ccnc4)(c4ccc(Cl)cc4Cl)O3)cc2)CC1 (stereo not drawn) [ketoconazole]	minor augmenting effect on IFN-alpha activity	no apparent activity	substantial inhibition	–	–	–	–
N=C(N)c1ccc(OCCCCCOc2ccc(C(=N)N)cc2)cc1 [pentamidine]	–	–	substantial inhibition	augmented IFN-alpha-induced growth inhibition	–	–	–
O.O.O.O.O.O.O.O.O.O=C([O-])[C@@H]1[O][Sb]2([O-])([O][Sb]34([OH])[O][C@H]([C@H](O)CO)[C@H]([O]3)[C@H](C(=O)[O-])[O]4)[O][C@H]([C@H](O)CO)[C@@H]1[O]2.[Na+].[Na+].[Na+] [sodium stibogluconate]	–	–	no obvious effects	–	inhibited by SSG in a dose-dependent manner	killed all cells	no obvious inhibitory activity
